Measurements from US9211310B2, “Use of a Chinese medicine composition in preparing medicaments for treating secondary prevention of myocardial infarction” (TASLY PHARMACEUTICAL GROUP CO., LTD, priority 2010, dated 2015).

System: patients after acute myocardial infarction
Assay: Life quality, Seattle Angina Questionnaire (SAQ), same clinical trial
Assay type: in vivo, human
Details: 9 months after treatment
From the text: 3508 patients who were in accordance with the diagnostic standards of AMI for 28 days to 2 years and differentiated as Qi deficiency and blood stagnation syndrome by TCM were studied. 0.5 g Chinese medicine composition prepared by the method of EXAMPLE 1 (Coded as QSYQ) was administrated half an hour after meal, 3 times per day.
There were 19 questions in the Seattle angina questionnaire (SAQ), including 5 parts: physical limitation (PL), anginal stability (AS), anginal frequency (AF), treatment satisfaction (TS) and disease perception (DP). After being given necessary explanation by doctors, the questions were answered independently by patients.
They included the overall survival time, angina pectoris score, TCM symptom score and life quality score, where angina pectoris score, TCM symptom score and life quality score were evaluated at randomization, in 1st, 3rd, 6th, 9th, 12th month after treatment and 18th month after follow-up.
All evaluation results of SAQ were described during the period of observation, and Wilcoxon rank sum test was used for inter-group comparison.
The evaluation results in the SAQ were depicted in different observations, and inter-group comparison was tested by Wilcoxon Rank-sum test.

Structure (SMILES): CC(=O)Oc1ccccc1C(=O)O [Control group, aspirine]
- SAQ Question 1-4: Not limited, number of patients (FAS): 797
- SAQ Question 1-4: Not limited, percent of patients (FAS): (45.70%)
- SAQ Question 1-4: Other reasons, number of patients (FAS): 10
- SAQ Question 1-4: Other reasons, percent of patients (FAS): (0.57%)
- SAQ Question 1-4: Severely limited, number of patients (FAS): 19
- SAQ Question 1-4: Severely limited, percent of patients (FAS): (1.09%)
- SAQ Question 1-4: Slightly limited, number of patients (FAS): 569
- SAQ Question 1-4: Slightly limited, percent of patients (FAS): (32.63%)
- SAQ Question 1-5: Mildly limited, number of patients (FAS): 284
- SAQ Question 1-5: Mildly limited, percent of patients (FAS): (16.29%)
- SAQ Question 1-5: Moderately limited, number of patients (FAS): 103
- SAQ Question 1-5: Moderately limited, percent of patients (FAS): (5.91%)
- SAQ Question 1-5: Not limited, number of patients (FAS): 825
- SAQ Question 1-5: Not limited, percent of patients (FAS): (47.33%)
- SAQ Question 1-5: Other reasons, number of patients (FAS): 11
- SAQ Question 1-5: Other reasons, percent of patients (FAS): (0.63%)
- SAQ Question 1-5: Severely limited, number of patients (FAS): 17
- SAQ Question 1-5: Severely limited, percent of patients (FAS): (0.98%)
- SAQ Question 1-5: Slightly limited, number of patients (FAS): 503
- SAQ Question 1-5: Slightly limited, percent of patients (FAS): (28.86%)
- SAQ Question 1-9: Mildly limited, % of cases (FAS): (19.38%)
- SAQ Question 1-9: Mildly limited, cases (FAS): 332
- SAQ Question 1-9: Moderately limited, % of cases (FAS): (20.61%)
- SAQ Question 1-9: Moderately limited, cases (FAS): 353
- SAQ Question 1-9: Not limited, % of cases (FAS): (3.91%)
- SAQ Question 1-9: Not limited, cases (FAS): 67
- SAQ Question 1-9: Other reasons, % of cases (FAS): (5.60%)
- SAQ Question 1-9: Other reasons, cases (FAS): 96
- SAQ Question 1-9: Severely limited, % of cases (FAS): (33.39%)
- SAQ Question 1-9: Severely limited, cases (FAS): 572
- SAQ Question 1-9: Slightly limited, % of cases (FAS): (17.10%)
- SAQ Question 1-9: Slightly limited, cases (FAS): 293
- SAQ 2nd question: Clearly increased, % of cases (PP): (0.63%)
- SAQ 2nd question: Clearly increased, cases (PP): 9
- SAQ 2nd question: Clearly reduced, % of cases (PP): (26.01%)
- SAQ 2nd question: Clearly reduced, cases (PP): 373
- SAQ 2nd question: Same, % of cases (PP): (34.94%)
- SAQ 2nd question: Same, cases (PP): 501
- SAQ 2nd question: Slightly increased, % of cases (PP): (3.21%)
- SAQ 2nd question: Slightly increased, cases (PP): 46
- SAQ 2nd question: Slightly reduced, % of cases (PP): (35.22%)
- SAQ 2nd question: Slightly reduced, cases (PP): 505
- SAQ 3rd question: 1-2 times per week, % of cases (PP): (35.22%)
- SAQ 3rd question: 1-2 times per week, cases (PP): 505
- SAQ 3rd question: 1-3 times per day, % of cases (PP): (3.21%)
- SAQ 3rd question: 1-3 times per day, cases (PP): 46
- SAQ 3rd question: <1 time per week, % of cases (PP): (26.01%)
- SAQ 3rd question: <1 time per week, cases (PP): 373
- SAQ 3rd question: No onset, % of cases (PP): (0.00%)
- SAQ 3rd question: No onset, cases (PP): 0
- SAQ 3rd question: ≧3 times per week, % of cases (PP): (34.94%)
- SAQ 3rd question: ≧3 times per week, cases (PP): 501
- SAQ 3rd question: ≧4 times per day, % of cases (PP): (0.63%)
- SAQ 3rd question: ≧4 times per day, cases (PP): 9
- SAQ Question 1-3: Mildly limited, number of patients (PP): 37
- SAQ Question 1-3: Mildly limited, percent of patients (PP): (2.57%)
- SAQ Question 1-3: Moderately limited, number of patients (PP): 10
- SAQ Question 1-3: Moderately limited, percent of patients (PP): (0.70%)
- SAQ Question 1-3: Not limited, number of patients (PP): 1187
- SAQ Question 1-3: Not limited, percent of patients (PP): (82.60%)
- SAQ Question 1-3: Other reasons, number of patients (PP): 6
- SAQ Question 1-3: Other reasons, percent of patients (PP): (0.42%)
- SAQ Question 1-3: Severely limited, number of patients (PP): 1
- SAQ Question 1-3: Severely limited, percent of patients (PP): (0.07%)
- SAQ Question 1-3: Slightly limited, number of patients (PP): 196
- SAQ Question 1-3: Slightly limited, percent of patients (PP): (13.64%)
- SAQ Question 1-4: Mildly limited, number of patients (PP): 208
- SAQ Question 1-4: Mildly limited, percent of patients (PP): (14.49%)
- SAQ Question 1-4: Moderately limited, number of patients (PP): 63
- SAQ Question 1-4: Moderately limited, percent of patients (PP): (4.39%)
- SAQ Question 1-4: Not limited, number of patients (PP): 673
- SAQ Question 1-4: Not limited, percent of patients (PP): (46.90%)
- SAQ Question 1-4: Other reasons, number of patients (PP): 10
- SAQ Question 1-4: Other reasons, percent of patients (PP): (0.70%)
- SAQ Question 1-4: Severely limited, number of patients (PP): 9
- SAQ Question 1-4: Severely limited, percent of patients (PP): (0.63%)
- SAQ Question 1-4: Slightly limited, number of patients (PP): 472
